Patent EP0068680A1, “Antibiotics” (BEECHAM GROUP PLC, priority 1981, dated 1983)
In brackets after ≈: the same amount, converted by molar mass. Read-outs that look alike come from different tables or passages of the source.

Key:
E. coli E1 = assay: MIC against Veterinary Bacteria in vitro (agar dilution)
Experimental: (§1) The activity of the compounds of the Examples against various veterinarily important bacteria, was assayed in vitro using two-fold serial dilutions in Diagnostic Sensitivity Test Agar inoculated with 10^4 organisms.

Past. multocida PA2 = assay: as above
Experimental: as §1

M. suipneumoniae TAM 6N = assay: MIC against Mycoplasma in vitro (agar); format: cell-based; conditions: Friis broth solidified with 0.9% agarose, 6 days at 37°C
Strep. faecalis I = assay: MIC against Human Bacteria in vitro (agar dilution); format: cell-based; conditions: agar with 5% chocolated horse blood, 18 hours at 37°C
[1] = tested on: M. suipneumoniae J2206/183^b; assay: MIC against Mycoplasma in vitro (agar); format: cell-based; conditions: Friis broth solidified with 0.9% agarose, 6 days at 37°C
[2] = tested on: M. suipneumoniae NCTC 10110; assay: MIC against Mycoplasma in vitro (agar); format: cell-based; conditions: Friis broth solidified with 0.9% agarose, 6 days at 37°C
Bord. bronchiseptica B09 = assay: MIC against Veterinary Bacteria in vitro (agar dilution)
Experimental: as §1

M. suipneumoniae UCD 1 = assay: MIC against Mycoplasma in vitro (agar); format: cell-based; conditions: Friis broth solidified with 0.9% agarose, 6 days at 37°C
[3] = tested on: Haemophilus influenzae Q1; assay: MIC against Human Bacteria in vitro (agar dilution); format: cell-based; conditions: agar with 5% chocolated horse blood, 18 hours at 37°C
Staph. aureus Oxford = assay: MIC against Veterinary Bacteria in vitro (agar dilution)
Experimental: as §1

Strep. pyogenes B2788 = assay: MIC against Human Bacteria in vitro (agar dilution); format: cell-based; conditions: agar with 5% chocolated horse blood, 18 hours at 37°C
Strep. uberis SPU1 = assay: MIC against Veterinary Bacteria in vitro (agar dilution)
Experimental: as §1

Bacillus subtilis 6633 = assay: MIC against Human Bacteria in vitro (agar dilution); format: cell-based; conditions: agar with 5% chocolated horse blood, 18 hours at 37°C
Strep. dysgalactiae SPD1 = assay: MIC against Veterinary Bacteria in vitro (agar dilution)
Experimental: as §1

M. bovis NCTC 10131 = assay: microbe, parasite or virus in culture; format: cell-based
M. suipneumoniae LABER = assay: MIC against Mycoplasma in vitro (agar); format: cell-based; conditions: Friis broth solidified with 0.9% agarose, 6 days at 37°C
[4] = tested on: Staph. aureus 152 (pen. sens); assay: MIC against Veterinary Bacteria in vitro (agar dilution)
Experimental: as §1

[5] = tested on: M. bovigenitalium ATCC 14173; assay: MIC against Mycoplasma in vitro (agar); format: cell-based; conditions: Friis broth solidified with 0.9% agarose, 6 days at 37°C
[6] = tested on: Pasteurella multocida 1633; assay: MIC against Human Bacteria in vitro (agar dilution); format: cell-based; conditions: agar with 5% chocolated horse blood, 18 hours at 37°C
M. suipneumoniae JF 435 = assay: MIC against Mycoplasma in vitro (agar); format: cell-based; conditions: Friis broth solidified with 0.9% agarose, 6 days at 37°C
Past. haemolytica PA5 = assay: MIC against Veterinary Bacteria in vitro (agar dilution)
Experimental: as §1

M. suipneumoniae HK(2) = assay: MIC against Mycoplasma in vitro (agar); format: cell-based; conditions: Friis broth solidified with 0.9% agarose, 6 days at 37°C
[7] = tested on: M. suipneumoniae PW/C/210; assay: MIC against Mycoplasma in vitro (agar); format: cell-based; conditions: Friis broth solidified with 0.9% agarose, 6 days at 37°C
Bord. bronchiseptica B08 = assay: MIC against Veterinary Bacteria in vitro (agar dilution)
Experimental: as §1

E. coli NCTC 10418 = assay: MIC against Human Bacteria in vitro (agar dilution); format: cell-based; conditions: 18 hours at 37°C
M. hyorhinis ATCC 23234 = assay: MIC against Mycoplasma in vitro (agar); format: cell-based; conditions: Friis broth solidified with 0.9% agarose, 6 days at 37°C
Staph. aureus Russell = assay: MIC against Human Bacteria in vitro (agar dilution); format: cell-based; conditions: agar with 5% chocolated horse blood, 18 hours at 37°C
K. aerogenes A = assay: as above; format: cell-based; conditions: agar with 5% chocolated horse blood, 18 hours at 37°C
Staph. aureus W2827 = assay: as above; format: cell-based; conditions: agar with 5% chocolated horse blood, 18 hours at 37°C
[8] = tested on: M. hyosynoviae ATCC 25591; assay: MIC against Mycoplasma in vitro (agar); format: cell-based; conditions: Friis broth solidified with 0.9% agarose, 6 days at 37°C
Sarcina lutea 8340 = assay: MIC against Human Bacteria in vitro (agar dilution); format: cell-based; conditions: agar with 5% chocolated horse blood, 18 hours at 37°C
E. coli ESS = assay: as above; format: cell-based; conditions: agar with 5% chocolated horse blood, 18 hours at 37°C
[9] = tested on: Neisseria catarrhalis 1502; assay: as above; format: cell-based; conditions: agar with 5% chocolated horse blood, 18 hours at 37°C
M. suipneumoniae Str. 11 = assay: MIC against Mycoplasma in vitro (agar); format: cell-based; conditions: Friis broth solidified with 0.9% agarose, 6 days at 37°C
Past. multocida PA1 = assay: MIC against Veterinary Bacteria in vitro (agar dilution)
Experimental: as §1

M. hyorhinis ATCC 25021 = assay: MIC against Mycoplasma in vitro (agar); format: cell-based; conditions: Friis broth solidified with 0.9% agarose, 6 days at 37°C
S. dublin S7 = assay: MIC against Veterinary Bacteria in vitro (agar dilution)
Experimental: as §1

Strep. agalactiae SPA1 = assay: as above
Experimental: as §1

[10] = tested on: Corynebacterium xerosis 9755; assay: MIC against Human Bacteria in vitro (agar dilution); format: cell-based; conditions: agar with 5% chocolated horse blood, 18 hours at 37°C
Strep. pneumoniae CN33 = assay: as above; format: cell-based; conditions: agar with 5% chocolated horse blood, 18 hours at 37°C
S. typhimurium S18 = assay: MIC against Veterinary Bacteria in vitro (agar dilution)
Experimental: as §1

[11] = Mesomycoplasma hyopneumoniae, 144 h, read-out: MIC
[12] = Staphylococcus aureus, read-out: MIC

## CC(=CC(=O)OCCCCC=CCCC(=O)O)CC1OCC(CC2OC2C(C)C(C)O)C(O)C1O (stereo not shown) [Example 1, pseudomonic acid D]
E. coli E1; Escherichia coli, E1, 18 h
  MIC: > 20 µg/mL
Past. multocida PA2; Pasteurella multocida, PA2, 18 h
  MIC: < 0.019 µg/mL
M. suipneumoniae TAM 6N; Mesomycoplasma hyopneumoniae, TAM6N, 144 h, read-out: MIC
  MIC: 5 µg/mL (≈ 10 µM)
Strep. faecalis I; Enterococcus faecalis, read-out: MIC
  MIC: > 25 µg/mL
[1]; [11]
  MIC: 2.5 µg/mL (≈ 5.01 µM)
[2]; Mesomycoplasma hyopneumoniae, NCTC10110, 144 h, read-out: MIC
  MIC: 5 µg/mL (≈ 10 µM)
Bord. bronchiseptica B09; Bordetella bronchiseptica, B09, 18 h
  MIC: 5 µg/mL (≈ 10 µM)
M. suipneumoniae UCD 1; Mesomycoplasma hyopneumoniae, UCD1, 144 h, read-out: MIC
  MIC: 5 µg/mL (≈ 10 µM)
[3]; read-out: MIC
  MIC: 0.25 µg/mL (≈ 0.501 µM)
Staph. aureus Oxford; Staphylococcus aureus, 18 h
  MIC: 0.312 µg/mL (≈ 0.626 µM)
Strep. pyogenes B2788; Streptococcus pyogenes, read-out: MIC
  MIC: 0.5 µg/mL (≈ 1 µM)
Strep. uberis SPU1; Streptococcus uberis, SPU1, 18 h
  MIC: 0.039 µg/mL (≈ 0.0782 µM)
Bacillus subtilis 6633; read-out: MIC
  MIC: 1 µg/mL (≈ 2.01 µM)
Strep. dysgalactiae SPD1; Streptococcus dysgalactiae, SPD1, 18 h
  MIC: 0.156 µg/mL (≈ 0.313 µM)
M. bovis NCTC 10131; NCTC10131, 144 h
  MIC: 0.05 µg/mL (≈ 0.1 µM)
M. suipneumoniae LABER; [11]
  MIC: 2.5 µg/mL (≈ 5.01 µM)
[4]; Staphylococcus aureus, 18 h
  MIC: 0.312 µg/mL (≈ 0.626 µM)
[5]; 144 h, read-out: MIC
  MIC: 0.1 µg/mL (≈ 0.201 µM)
[6]; read-out: MIC
  MIC: 0.25 µg/mL (≈ 0.501 µM)
M. suipneumoniae JF 435; Mesomycoplasma hyopneumoniae, JF435, 144 h, read-out: MIC
  MIC: 5 µg/mL (≈ 10 µM)
Past. haemolytica PA5; Mannheimia haemolytica, PA5, 18 h
  MIC: 2.5 µg/mL (≈ 5.01 µM)
M. suipneumoniae HK(2); [11]
  MIC: 5 µg/mL (≈ 10 µM)
[7]; [11]
  MIC: 1 µg/mL (≈ 2.01 µM)
Bord. bronchiseptica B08; Bordetella bronchiseptica, B08, 18 h
  MIC: 10 µg/mL (≈ 20.1 µM)
E. coli NCTC 10418; Escherichia coli, NCTC10418, agar with 5% chocolated horse blood, read-out: MIC
  MIC: > 25 µg/mL
M. hyorhinis ATCC 23234; Mesomycoplasma hyorhinis, ATCC23234, 144 h, read-out: MIC
  MIC: 1 µg/mL (≈ 2.01 µM)
Staph. aureus Russell; [12]
  MIC: 1 µg/mL (≈ 2.01 µM)
K. aerogenes A; Klebsiella aerogenes, read-out: MIC
  MIC: > 25 µg/mL
Staph. aureus W2827; [12]
  MIC: 1 µg/mL (≈ 2.01 µM)
[8]; 144 h, read-out: MIC
  MIC: 0.5 µg/mL (≈ 1 µM)
Sarcina lutea 8340; Micrococcus luteus, read-out: MIC
  MIC: > 25 µg/mL
E. coli ESS; Escherichia coli, read-out: MIC
  MIC: 1 µg/mL (≈ 2.01 µM)
[9]; read-out: MIC
  MIC: 0.5 µg/mL (≈ 1 µM)
M. suipneumoniae Str. 11; [11]
  MIC: 1 µg/mL (≈ 2.01 µM)
Past. multocida PA1; Pasteurella multocida, PA1, 18 h
  MIC: 0.156 µg/mL (≈ 0.313 µM)
M. hyorhinis ATCC 25021; Mesomycoplasma hyorhinis, ATCC25021, 144 h, read-out: MIC
  MIC: 1 µg/mL (≈ 2.01 µM)
S. dublin S7; Salmonella enterica, S7, 18 h
  MIC: > 20 µg/mL
Strep. agalactiae SPA1; Streptococcus agalactiae, SPA1, 18 h
  MIC: 0.625 µg/mL (≈ 1.25 µM)
[10]; read-out: MIC
  MIC: > 25 µg/mL
Strep. pneumoniae CN33; Streptococcus pneumoniae, read-out: MIC
  MIC: 0.25 µg/mL (≈ 0.501 µM)
S. typhimurium S18; Salmonella enterica, TYPHIMURIUM, 18 h
  MIC: > 20 µg/mL

## Methyl pseudomonate D [Example 2]
E. coli E1; E. coli E1, Diagnostic Sensitivity Test Agar, 18 hours at 37°C
  MIC: 40 µg/mL
Past. multocida PA2; Past. multocida PA2, Diagnostic Sensitivity Test Agar, 18 hours at 37°C
  MIC: 2.5 µg/mL
M. suipneumoniae TAM 6N
  MIC: 10 µg/mL
Strep. faecalis I
  MIC: >100 µg/mL
[1]
  MIC: 5.0 µg/mL
[2]
  MIC: 5.0 µg/mL
Bord. bronchiseptica B09; Bord. bronchiseptica B09, Diagnostic Sensitivity Test Agar, 18 hours at 37°C
  MIC: 10 µg/mL
M. suipneumoniae UCD 1
  MIC: 5.0 µg/mL
[3]
  MIC: 0.5 µg/mL
Staph. aureus Oxford; Staph. aureus Oxford, Diagnostic Sensitivity Test Agar, 18 hours at 37°C
  MIC: 0.625 µg/mL
Strep. pyogenes B2788
  MIC: 2.5 µg/mL
Strep. uberis SPU1; Strep. uberis SPU1, Diagnostic Sensitivity Test Agar, 18 hours at 37°C
  MIC: 5.0 µg/mL
Bacillus subtilis 6633
  MIC: 0.5 µg/mL
Strep. dysgalactiae SPD1; Strep. dysgalactiae SPD1, Diagnostic Sensitivity Test Agar, 18 hours at 37°C
  MIC: 0.156 µg/mL
M. bovis NCTC 10131; M. bovis NCTC 10131, Friis broth solidified with 0.9% agarose, 6 days at 37°C
  MIC: 0.05 µg/mL
M. suipneumoniae LABER
  MIC: 2.5 µg/mL
[4]; Staph. aureus 152 (pen. sens), Diagnostic Sensitivity Test Agar, 18 hours at 37°C
  MIC: 0.625 µg/mL
[5]
  MIC: 0.1 µg/mL
[6]
  MIC: 0.5 µg/mL
M. suipneumoniae JF 435
  MIC: 5.0 µg/mL
Past. haemolytica PA5; Past. haemolytica PA5, Diagnostic Sensitivity Test Agar, 18 hours at 37°C
  MIC: 1.25 µg/mL
M. suipneumoniae HK(2)
  MIC: 5.0 µg/mL
[7]
  MIC: 2.5 µg/mL
Bord. bronchiseptica B08; Bord. bronchiseptica B08, Diagnostic Sensitivity Test Agar, 18 hours at 37°C
  MIC: 40 µg/mL
E. coli NCTC 10418; agar with 5% chocolated horse blood
  MIC: >100 µg/mL
M. hyorhinis ATCC 23234
  MIC: 1.0 µg/mL
Staph. aureus Russell
  MIC: 2.5 µg/mL
K. aerogenes A
  MIC: >100 µg/mL
Staph. aureus W2827
  MIC: 1.0 µg/mL
[8]
  MIC: 0.5 µg/mL
Sarcina lutea 8340
  MIC: >100 µg/mL
E. coli ESS
  MIC: 1.0 µg/mL
[9]
  MIC: 0.5 µg/mL
M. suipneumoniae Str. 11
  MIC: 2.5 µg/mL
Past. multocida PA1; Past. multocida PA1, Diagnostic Sensitivity Test Agar, 18 hours at 37°C
  MIC: 10 µg/mL
M. hyorhinis ATCC 25021
  MIC: 1.0 µg/mL
S. dublin S7; S. dublin S7, Diagnostic Sensitivity Test Agar, 18 hours at 37°C
  MIC: 80 µg/mL
Strep. agalactiae SPA1; Strep. agalactiae SPA1, Diagnostic Sensitivity Test Agar, 18 hours at 37°C
  MIC: 0.312 µg/mL
[10]
  MIC: >100 µg/mL
Strep. pneumoniae CN33
  MIC: 2.5 µg/mL
S. typhimurium S18; S. typhimurium S18, Diagnostic Sensitivity Test Agar, 18 hours at 37°C
  MIC: 80 µg/mL
